Data as given in patent US12391737B2, “Soluble NPY2 receptor agonists” (Boehringer Ingelheim International GmbH, priority 2020, dated 2025).

Experiments:
[1] = biological target: T1, Human Neuropeptide Y2 Receptor (Homo sapiens, UniProt P49146); assay: Radioligand binding competition assay (RLB); conditions: Table 3, 125I-PYY(1-36) competition; read-out: Ki
T1 construct: purchased CHEMICON HTS066M
T1 sequence (P49146 1-381): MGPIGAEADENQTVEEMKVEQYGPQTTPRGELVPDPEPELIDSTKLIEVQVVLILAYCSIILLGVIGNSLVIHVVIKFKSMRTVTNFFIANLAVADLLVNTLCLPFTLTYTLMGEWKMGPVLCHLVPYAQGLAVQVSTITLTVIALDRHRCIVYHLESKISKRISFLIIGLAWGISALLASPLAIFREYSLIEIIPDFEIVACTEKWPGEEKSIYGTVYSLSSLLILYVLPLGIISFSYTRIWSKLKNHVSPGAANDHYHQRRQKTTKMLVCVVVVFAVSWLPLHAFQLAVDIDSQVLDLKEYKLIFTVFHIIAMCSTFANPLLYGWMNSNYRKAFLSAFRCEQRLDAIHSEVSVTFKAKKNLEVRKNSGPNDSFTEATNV
Procedure, shortened: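 Receptor membranes, 0.5 μg/well; buffer 50 mM HEPES/5 mM MgCl2/1 mM CaCl2/0.2% ovalbumin, pH 7.4; 2 h RT, shaking. GF/C filtration, cold HEPES/500 mM NaCl wash, scintillation count. IC50 by nonlinear regression.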

Solubility determination = conditions: for Sol6: pH 6; for Sol7: pH 7
Procedure, shortened: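 Shake-flask style: 10 mg/ml peptide (TFA salt), 0.1 M sodium diphosphate pH 6.4/7.0, 600 rpm, 2 h, RT; filter; dilute 1 mg/ml in 50% MeCN; RP-UPLC, 0–100% B over 2 min, 50 °C. Solubility = sample/control area ratio. Final pH recorded.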

Ki [1] | Sol6 (Solubility determination) | Sol7 (Solubility determination) | SMILES
8.65 nM | >10.0 mg/mL | 10.0 mg/mL | CC(C)CC(=O)N[C@@H](C)C(=O)N1CCC[C@H]1C(=O)N[C@@H](CCC(=O)O)C(=O)N[C@@H](CCCCNC(=O)CCCCCNC(=O)CC[C@H](NC(=O)CCCCCCCCCCCCCCCCC(=O)O)C(=O)O)C(=O)N1CCC[C@H]1C(=O)N[C@@H](CCC(=O)O)C(=O)N[C@@H](CCC(=O)O)C(=O)N[C@@H](CC(=O)O)C(=O)N[C@@H](C)C(=O)N[C@H](C(=O)N1CCC[C@H]1C(=O)N[C@@H](CCC(=O)O)C(=O)N[C@@H](CCC(=O)O)C(=O)N[C@@H](CC(C)C)C(=O)N[C@@H](CCC(N)=O)C(=O)N[C@@H](CCC(N)=O)C(=O)N[C@@H](Cc1ccc(O)cc1)C(=O)N[C@@H](Cc1ccc(O)cc1)C(=O)N[C@H](C(=O)N[C@@H](CO)C(=O)N[C@@H](CC(C)C)C(=O)N[C@@H](CCCNC(=N)N)C(=O)N[C@@H](Cc1c[nH]cn1)C(=O)N[C@@H](Cc1ccc(O)cc1)C(=O)N[C@@H](Cc1ccc(O)cc1)C(=O)N[C@@H](CC(N)=O)C(=O)N[C@@H](Cc1c[nH]c2ccccc12)C(=O)N[C@@H](CC(C)C)C(=O)N[C@H](C(=O)N[C@@H](CCCNC(=N)N)C(=O)N[C@@H](CCC(N)=O)C(=O)N[C@@H](CCCNC(=N)N)C(=O)N[C@@H](Cc1ccc(O)cc1)C(N)=O)[C@@H](C)O)C(C)C)[C@@H](C)O [Compound 177, N{alpha-4}-(3-methylbutanoyl)-N{epsilon-7}-(6-[(4S)-4-carboxy-4-(17-carboxyheptadecanamido)butanamido]hexanoyl)-[4A,7K,9E,13T,18Q,19Q,22V,28Y,30W,31L]-hPYY(4-36)]
0.89 nM | 8.1 mg/mL | 8.3 mg/mL | CC(C)CC(=O)N[C@@H](C)C(=O)N1CCC[C@H]1C(=O)N[C@@H](CCC(=O)O)C(=O)N[C@@H](CCCCNC(=O)CCCCCNC(=O)CC[C@H](NC(=O)CCCCCCCCCCCCCCCCC(=O)O)C(=O)O)C(=O)N1CCC[C@H]1C(=O)N[C@@H](CCC(=O)O)C(=O)N[C@@H](C)C(=O)N[C@@H](CC(=O)O)C(=O)N[C@@H](C)C(=O)N[C@@H](CO)C(=O)N1CCC[C@H]1C(=O)N[C@@H](CCC(=O)O)C(=O)N[C@@H](CCC(=O)O)C(=O)N[C@H](C(=O)N[C@@H](CCC(N)=O)C(=O)N[C@@H](CCCNC(=N)N)C(=O)N[C@@H](Cc1ccc(O)cc1)C(=O)N[C@@H](Cc1ccc(O)cc1)C(=O)N[C@H](C(=O)N[C@@H](C)C(=O)N[C@@H](CC(C)C)C(=O)N[C@@H](CCCNC(=N)N)C(=O)N[C@@H](Cc1c[nH]cn1)C(=O)N[C@@H](Cc1ccc(O)cc1)C(=O)N[C@@H](Cc1ccc(O)cc1)C(=O)N[C@@H](CC(N)=O)C(=O)N[C@@H](Cc1c[nH]c2ccccc12)C(=O)N[C@@H](CC(C)C)C(=O)N[C@H](C(=O)N[C@@H](CCCNC(=N)N)C(=O)N[C@@H](CCC(N)=O)C(=O)N[C@@H](CCCNC(=N)N)C(=O)N[C@@H](Cc1ccc(O)cc1)C(N)=O)[C@@H](C)O)C(C)C)[C@@H](C)O [Compound 179, N{alpha-4}-(3-methylbutanoyl)-N{epsilon-7}-(6-[(4S)-4-carboxy-4-(17-carboxyheptadecanamido)butanamido]hexanoyl)-[4A,7K,9E,10A,17T,18Q,22V,23A,28Y,30W,31L]-hPYY(4-36)]
4 nM | 0.2 mg/mL | >10.0 mg/mL | CC(C)CC(=O)N[C@@H](C)C(=O)N1CCC[C@H]1C(=O)N[C@@H](C)C(=O)N[C@@H](CCCCNC(=O)CCCCCNC(=O)CC[C@H](NC(=O)CCCCCCCCCCCCCCCCC(=O)O)C(=O)O)C(=O)N1CCC[C@H]1C(=O)N[C@@H](CCC(=O)O)C(=O)N[C@@H](CCC(=O)O)C(=O)N[C@@H](C)C(=O)N[C@@H](C)C(=O)N[C@@H](CCC(=O)O)C(=O)N1CCC[C@H]1C(=O)N[C@@H](CCC(=O)O)C(=O)N[C@@H](CCC(=O)O)C(=O)N[C@@H](CC(C)C)C(=O)N[C@@H](CCC(N)=O)C(=O)N[C@@H](CCCNC(=N)N)C(=O)N[C@@H](Cc1ccc(O)cc1)C(=O)N[C@@H](Cc1ccc(O)cc1)C(=O)N[C@H](C(=O)N[C@@H](C)C(=O)N[C@@H](CC(C)C)C(=O)N[C@@H](CCCNC(=N)N)C(=O)N[C@@H](Cc1c[nH]cn1)C(=O)N[C@@H](Cc1ccc(O)cc1)C(=O)N[C@@H](Cc1ccc(O)cc1)C(=O)N[C@@H](CC(N)=O)C(=O)N[C@@H](Cc1c[nH]c2ccccc12)C(=O)N[C@@H](CC(C)C)C(=O)N[C@H](C(=O)N[C@@H](CCCNC(=N)N)C(=O)N[C@@H](CCC(N)=O)C(=O)N[C@@H](CCCNC(=N)N)C(=O)N[C@@H](Cc1ccc(O)cc1)C(N)=O)[C@@H](C)O)C(C)C [Compound 161, N{alpha-4}-(3-methylbutanoyl)-N{epsilon-7}-(6-[(4S)-4-carboxy-4-(17-carboxyheptadecanamido)butanamido]hexanoyl)-[4A,6A,7K,9E,11A,13E,18Q,22V,23A,28Y,30W,31L]-hPYY(4-36)]
1.44 nM | 8.8 mg/mL | 9.3 mg/mL | CC(C)CC(=O)N[C@@H](C)C(=O)N1CCC[C@H]1C(=O)N[C@@H](C)C(=O)N[C@@H](CCCCNC(=O)CCCCCNC(=O)CC[C@H](NC(=O)CCCCCCCCCCCCCCCCC(=O)O)C(=O)O)C(=O)N1CCC[C@H]1C(=O)N1CCC[C@H]1C(=O)N[C@@H](CCC(=O)O)C(=O)N[C@@H](CC(=O)O)C(=O)N[C@@H](C)C(=O)N[C@@H](CO)C(=O)N1CCC[C@H]1C(=O)N[C@@H](CCC(=O)O)C(=O)N[C@@H](CCC(=O)O)C(=O)N[C@@H](CC(C)C)C(=O)N[C@@H](CCC(N)=O)C(=O)N[C@@H](CCCNC(=N)N)C(=O)N[C@@H](Cc1ccc(O)cc1)C(=O)N[C@@H](Cc1ccc(O)cc1)C(=O)N[C@H](C(=O)N[C@@H](CCC(=O)O)C(=O)N[C@@H](CC(C)C)C(=O)N[C@@H](CCCNC(=N)N)C(=O)N[C@@H](Cc1c[nH]cn1)C(=O)N[C@@H](Cc1ccc(O)cc1)C(=O)N[C@@H](Cc1ccc(O)cc1)C(=O)N[C@@H](CC(N)=O)C(=O)N[C@@H](Cc1c[nH]c2ccccc12)C(=O)N[C@@H](CC(C)C)C(=O)N[C@H](C(=O)N[C@@H](CCCNC(=N)N)C(=O)N[C@@H](CCC(N)=O)C(=O)N[C@@H](CCCNC(=N)N)C(=O)N[C@@H](Cc1ccc(O)cc1)C(N)=O)[C@@H](C)O)C(C)C [Compound 62, N{alpha-4}-(3-methylbutanoyl)-N{epsilon-7}-(6-[(4S)-4-carboxy-4-(17-carboxyheptadecanamido)butanamido]hexanoyl)-[4A,6A,7K,9P,18Q,22V,23E,28Y,30W,31L]-hPYY(4-36)]
1.32 nM | 8.8 mg/mL | 8.8 mg/mL | CC(C)CC(=O)N[C@@H](C)C(=O)N1CCC[C@H]1C(=O)N[C@@H](CCC(=O)O)C(=O)N[C@@H](CCCCNC(=O)CCCCCNC(=O)CC[C@H](NC(=O)CCCCCCCCCCCCCCCCC(=O)O)C(=O)O)C(=O)N1CCC[C@H]1C(=O)N[C@@H](CCC(=O)O)C(=O)N[C@@H](CCC(=O)O)C(=O)N[C@@H](CC(=O)O)C(=O)N[C@@H](C)C(=O)N[C@H](C(=O)N1CCC[C@H]1C(=O)N[C@@H](CCC(=O)O)C(=O)N[C@@H](CCC(=O)O)C(=O)N[C@H](C(=O)N[C@@H](CCC(N)=O)C(=O)N[C@@H](CCCNC(=N)N)C(=O)N[C@@H](Cc1ccc(O)cc1)C(=O)N[C@@H](Cc1ccc(O)cc1)C(=O)N[C@H](C(=O)N[C@@H](CO)C(=O)N[C@@H](CC(C)C)C(=O)N[C@@H](CCCNC(=N)N)C(=O)N[C@@H](Cc1c[nH]cn1)C(=O)N[C@@H](Cc1ccc(O)cc1)C(=O)N[C@@H](Cc1ccc(O)cc1)C(=O)N[C@@H](CC(N)=O)C(=O)N[C@@H](Cc1c[nH]c2ccccc12)C(=O)N[C@@H](CC(C)C)C(=O)N[C@H](C(=O)N[C@@H](CCCNC(=N)N)C(=O)N[C@@H](CCC(N)=O)C(=O)N[C@@H](CCCNC(=N)N)C(=O)N[C@@H](Cc1ccc(O)cc1)C(N)=O)[C@@H](C)O)C(C)C)[C@@H](C)O)[C@@H](C)O [Compound 152, N{alpha-4}-(3-methylbutanoyl)-N{epsilon-7}-(6-[(4S)-4-carboxy-4-(17-carboxyheptadecanamido)butanamido]hexanoyl)-[4A,7K,9E,13T,17T,18Q,22V,28Y,30W,31L]-hPYY(4-36)]
2.53 nM | 7.2 mg/mL | 8.3 mg/mL | CC[C@H](C)[C@H](NC(=O)[C@H](Cc1ccc(O)cc1)NC(=O)[C@H](Cc1ccc(O)cc1)NC(=O)[C@H](CCCNC(=N)N)NC(=O)[C@H](CCC(N)=O)NC(=O)[C@H](CC(C)C)NC(=O)[C@H](CCC(=O)O)NC(=O)[C@H](CCC(=O)O)NC(=O)[C@@H]1CCCN1C(=O)[C@H](CCC(=O)O)NC(=O)[C@H](C)NC(=O)[C@H](CC(=O)O)NC(=O)[C@H](CCC(=O)O)NC(=O)[C@H](CCC(=O)O)NC(=O)[C@@H]1CCCN1C(=O)[C@H](CCCCNC(=O)CCCCCNC(=O)CC[C@H](NC(=O)CCCCCCCCCCCCCCCCC(=O)O)C(=O)O)NC(=O)[C@H](C)NC(=O)[C@@H]1CCCN1C(=O)[C@H](C)NC(=O)CC(C)C)C(=O)N[C@@H](CO)C(=O)N[C@@H](CC(C)C)C(=O)N[C@@H](CCCNC(=N)N)C(=O)N[C@@H](Cc1c[nH]cn1)C(=O)N[C@@H](Cc1ccc(O)cc1)C(=O)N[C@@H](Cc1ccc(O)cc1)C(=O)N[C@@H](CC(N)=O)C(=O)N[C@@H](Cc1c[nH]c2ccccc12)C(=O)N[C@@H](CC(C)C)C(=O)N[C@H](C(=O)N[C@@H](CCCNC(=N)N)C(=O)N[C@@H](CCC(N)=O)C(=O)N[C@@H](CCCNC(=N)N)C(=O)N[C@@H](Cc1ccc(O)cc1)C(N)=O)[C@@H](C)O [Compound 33, N{alpha-4}-(3-methylbutanoyl)-N{epsilon-7}-(6-[(4S)-4-carboxy-4-(17-carboxyheptadecanamido)butanamido]hexanoyl)[4A,6A,7K,9E,13E,18Q,22I,28Y,30W,31L]-hPYY(4-36)]
